Consider 15 compounds from US5453518A, “Flavone derivatives” (Recordati S.A., Chemical and Pharmaceutical Company, priority 1992, dated 1995).

Series [1] deals with rat bladder (K^+ -induced contractions). Briefly: Inhibition of K^+ -induced rat bladder contractions. Also on record: species or system rat (male Sprague Dawley). To be noted: for IC50: 0.5 h, KCl 80 mM, 30 min after drug, isolated rat bladder; for activity of N-oxide compounds: in words, based on the Table. The procedure:
Female Albino Swiss mice [Crl: CD-1 (ICR) BR] with a body weight of 20-30 g and male Sprague Dawley rats [Crl: CD° BR] with a body weight of 200-300 g, from the Charles River Farm, Italy, were used for the trials. The animals were housed with free access to food and water and kept on a forced light-darkness cycle at 22°-24° C. until the day of the trials. Male rats were killed by a blow on their heads and their lower abdomens were opened along the midlines. Their urinary bladders were removed by a transverse dissection above the trigone and cut into two fragments (20-30 mm long, 1-2 mm wide). Each fragment was suspended in an isolated organ bath containing 10 ml of a normal Tyrode solution (composition in mM: NaCl 137, KCl 2.68, MgCl2 1.11, CaCl2 1.8, NaH2 PO4 0.41, NaHCO3 11.9, glucose 5.55) and connected, under a steady 1 g load, to an isometric transducer (DY-1, Basile). The solution was gassed with a mixture of 95% O2 and 5% CO2 and heated at 37° C. After a 60 minute equilibration the tension responses to a single KCl dose (Bath concentration=80 mM) inducing phasic and tonic contractions were measured under isometric conditions at 30 minute intervals. After recording one or more reproducible responses, a solution of the test drug was added to the bath (final concentration from 10^-4 to 10^-9 M) and 30 minutes later a new contraction was induced. The experimental groups were made up of at least 2 preparations from different animals for each drug concentration tested. The IC50 values of the inhibition of the agonist-induced contractions were evaluated by linear regression analysis.

The nature of series [2]: Acute toxicity in mice (LD50). The format is in vivo. To be noted: mouse, in vivo, mice, death rate 7 days after administration. The method, then: (§1) Female Albino Swiss mice [Crl: CD-1 (ICR) BR] with a body weight of 20-30 g and male Sprague Dawley rats [Crl: CD° BR] with a body weight of 200-300 g, from the Charles River Farm, Italy, were used for the trials. The animals were housed with free access to food and water and kept on a forced light-darkness cycle at 22°-24° C. until the day of the trials.
(§2) The acute toxicity was evaluated in female Albino Swiss mice after intraperitoneal or oral administrations. Four logarithmic scaled doses of the compounds were dissolved or suspended in 0.5% aqueous Methocel and administered at a volume of 10 ml/kg to groups of 4 mice/dose. The death rate was recorded 7 days after the administration.
(§3) The LD50 values and the relevant confidence limits were calculated according to the method of Weil (Biometrics, 8, 249, 1952).

Series [3] is described as follows: Stability at 37° C. and physiological pH (phosphate buffer, pH=7.4). The format is physicochemical. Conditions: pH 7.4 phosphate buffer, read-out: Stability at pH 7.4, % Unchanged after 3 h. The text has this:
The stability of the other compounds of the invention was not investigated as they are known to be less subject to degradation than the esters.

The subject of series [4] is Female Albino Swiss mice. Briefly: Acute toxicity in mice (LD50). The format is in vivo. To be noted: in words; LD50/IC50 compared with Flavoxate. The procedure:
as §1, §2, §3

Where [5] appears, read: phasic contraction, read-out: IC50, inhibition of K^+ -induced rat bladder contractions, Phasic.
The mark [6] stands for this setting: tonic contraction, read-out: IC50, inhibition of K^+ -induced rat bladder contractions, Tonic.
[7] abbreviates: ip, i.p., read-out: Mice LD50 i.p.
Setting [8] is: po, p.o., read-out: Mice LD50 p.o.

Where a name gives a salt, the structure may show the parent alone. Read-outs that look alike come from different tables or passages of the source.

A word on the IC50: it is the concentration at which inhibition is half-maximal. As usually defined, the LD50 is the dose at which mortality reaches 50%. `COc1ccc(C(C#N)(CCCN(C)CC(=O)c2cccc3c(=O)c(C)c(-c4ccccc4)oc23)C(C)C)cc1OC.Cl.O` (centres unmarked) [Example 1, 8-{2-[4-Cyano-4-(3,4-dimethoxyphenyl)-5,N-dimethylhexylamino]-1-oxoethyl}-3-methyl-4-oxo-2-phenyl-4H-1-benzopyran hydrochloride hydrate]: the IC50 in series [1] (setting [5]) is 10000 nM; in series [1] (setting [6]) it was over 10000 nM. Further, the median lethal dose (LD50) at 168 h in series [2] (setting [7]) was 475 mg/kg; in series [2] (setting [8]) it was over 3000 mg/kg.
The like results for `COc1ccc(CCN(C)CCCOC(=O)c2cccc3c(=O)c(C)c(-c4ccccc4)oc23)cc1OC.Cl` [Example 2, 8-{3-[2-(3,4-Dimethoxyphenyl)-N-methylethylamino]propoxycarbonyl}-3-methyl-4-oxo-2-phenyl-4H-1-benzopyran hydrochloride] were, in that order, 1000 nM, 500 nM, 773 mg/kg and 2260 mg/kg.
Turning to `COc1ccc(CC[N+](C)([O-])CCCOC(=O)c2cccc3c(=O)c(C)c(-c4ccccc4)oc23)cc1OC` (centres unmarked) [Example 3, 8-{3-[2-(3,4-Dimethoxyphenyl)-N-methyl-N-oxoethylamino]-propoxycarbonyl}-3-methyl-4-oxo-2-phenyl-4H-1-benzopyran hydrochloride], the IC50 in series [1] (setting [5]) and in series [1] (setting [6]) was over 10000 nM throughout. Besides, the “activity of N-oxide compounds” value in series [1] is listed as “do not appear to be very active”. Besides, the results for the LD50 at 168 h in series [2] (setting [7]) and in series [2] (setting [8]) were over 1000 mg/kg and over 3000 mg/kg, respectively.
Regarding `COc1ccc(C(C#N)(CCCN(C)CCCOC(=O)c2cccc3c(=O)c(C)c(-c4ccccc4)oc23)C(C)C)cc1OC.Cl` (centres unmarked) [Example 4, 8-{3-[4-Cyano-4-(3,4-dimethoxyphenyl)-N,5-dimethylhexylamino]propoxycarbonyl}-3-methyl-4-oxo-2-phenyl-4H-1-benzopyran hydrochloride], the IC50 was determined as 500 nM in series [1] (setting [5]) and 1300 nM in series [1] (setting [6]). Besides, the remaining at 3 h in series [3] stood at 100%. Besides, the 50% lethal dose (LD50) at 168 h in series [2] (setting [7]) was over 1000 mg/kg; in series [2] (setting [8]) it was over 3000 mg/kg.
`COc1ccc(C(C#N)(CCC[N+](C)([O-])CCCOC(=O)c2cccc3c(=O)c(C)c(-c4ccccc4)oc23)C(C)C)cc1OC` (centres unmarked) [Example 5, 8-{3-[4-Cyano-4-(3,4-dimethoxyphenyl)-N,5-dimethyl-N-oxohexylamino]propoxycarbonyl}-3-methyl-4-oxo-2-phenyl-4H-1-benzopyran hydrochloride x 0.25 H2 O]: the IC50 in series [1] (setting [5]) amounted to 10000 nM; in series [1] (setting [6]) it was 2200 nM. Moreover, the “activity of N-oxide compounds” value in series [1] is “do not appear to be very active”. Besides, the LD50 at 168 h was over 1000 mg/kg in series [2] (setting [7]) and over 3000 mg/kg in series [2] (setting [8]).
With `CCN(CCCOC(=O)c1cccc2c(=O)c(C)c(-c3ccccc3)oc12)C(C)Cc1ccc(OC)cc1.Cl` (centres unmarked) [Example 6, 8-{3-[N-Ethyl-3-(4-methoxyphenyl)-2-propylamino]propoxycarbonyl}-3-methyl-4-oxo-2-phenyl-4H-1-benzopyran hydrochloride], the IC50 was found to be 1700 nM in series [1] (setting [5]) and 4200 nM in series [1] (setting [6]). Moreover, the remaining at 3 h in series [3] was found to be 99%. Besides, the LD50 at 168 h is over 1000 mg/kg in series [2] (setting [7]) and over 3000 mg/kg in series [2] (setting [8]).
The like results for `COc1ccc(CC2c3cc(OC)c(OC)cc3CCN2CCCOC(=O)c2cccc3c(=O)c(C)c(-c4ccccc4)oc23)cc1OC` (centres unmarked) [Example 7, 8-{3-[1-(3,4-Dimethoxybenzyl)-6,7-dimethoxy-2H-1,2,3,4-tetrahydro-2-isoquinolinyl]propoxycarbonyl}-3-methyl-4-oxo-2-phenyl-4H-1-benzopyran hydrochloride] were, in that order, 1400 nM, 900 nM, 99%, over 1000 mg/kg and over 3000 mg/kg.
`COc1ccc(C(C#N)(CCCN(C)CCCNC(=O)c2cccc3c(=O)c(C)c(-c4ccccc4)oc23)C(C)C)cc1OC` (centres unmarked) [Example 11, 8-{3-[4-Cyano-4-(3,4-dimethoxyphenyl)-N,5-dimethylhexylamino]propylcarbamoyl}-3-methyl-4-oxo-2-phenyl-4H-1-benzopyran hydrochloride hemihydrate]: the IC50 was 600 nM in series [1] (setting [5]) and 500 nM in series [1] (setting [6]). Besides, the LD50 at 168 h in series [2] (setting [7]) stood at 224 mg/kg; in series [2] (setting [8]), 400 mg/kg. Also, the “relative therapeutic index (LD50/IC50) versus Flavoxate” value in series [4] was “considerably safer than Flavoxate”.
In the case of `COc1ccc(CCN(C)CCCNC(=O)c2cccc3c(=O)c(C)c(-c4ccccc4)oc23)cc1OC` [Example 12, 8-{3-[2-(3,4-Dimethoxyphenyl)-N-methylethylamino]propylcarbamoyl}-3-methyl-4-oxo-2-phenyl-4H -1-benzopyran hydrochloride 0.3-hydrate], the IC50 stood at 2200 nM in series [1] (setting [5]) and 1400 nM in series [1] (setting [6]). The LD50 at 168 h in series [2] (setting [7]) was found to be 129 mg/kg; in series [2] (setting [8]) it was 716 mg/kg.
`COc1ccc(C(C#N)(CCCN(C)CCNC(=O)c2cccc3c(=O)c(C)c(-c4ccccc4)oc23)C(C)C)cc1OC` (centres unmarked) [Example 13, 8-{2-[4-Cyano-4-(3,4-dimethoxyphenyl)-N,5-dimethylhexylamino]ethylcarbamoyl}-3-methyl-4-oxo-2-phenyl-4H-1-benzopyran hydrochloride hemihydrate]: the concentration for half-maximal inhibition (IC50) in series [1] (setting [5]) was 300 nM; in series [1] (setting [6]), 100 nM. In addition, in series [2] (setting [7]), the LD50 at 168 h turned out to be 422 mg/kg.
For `COc1ccc(C(C#N)(CCCN(C)CC(=O)NCc2cccc3c(=O)c(C)c(-c4ccccc4)oc23)C(C)C)cc1OC.Cl.O.O` (centres unmarked) [Example 16, 8-{2-[4-Cyano-4-(3,4-dimethoxyphenyl)-N,5-dimethylhexylamino]-1-oxoethylaminomethyl}-3-methyl-4-oxo-2-phenyl-4H -1-benzopyran hydrochloride dihydrate], the IC50 in series [1] (setting [5]) came to 500 nM; in series [1] (setting [6]) it was 900 nM. Further, the LD50 at 168 h in series [2] (setting [7]) turned out to be 440 mg/kg; in series [2] (setting [8]), 1280 mg/kg.
For the compound `COc1ccc(C(C#N)(CCCN(C)CC(=O)N(C)Cc2cccc3c(=O)c(C)c(-c4ccccc4)oc23)C(C)C)cc1OC.Cl.O` (centres unmarked) [Example 17, 8-{2-[4-Cyano-4-(3,4-dimethoxyphenyl)-N,5-dimethylhexylamino]-N-methyl-1-oxo-ethylaminomethyl}-3-methyl-4-oxo-2-phenyl-4H-1-benzopyran hydrochloride hydrate], the IC50 in series [1] (setting [5]) came to 200 nM; in series [1] (setting [6]), 400 nM. In addition, the results for the LD50 at 168 h in series [2] (setting [7]) and in series [2] (setting [8]) were 334 mg/kg and 1710 mg/kg, respectively.
For `COc1ccc(C(C#N)(CCCN(C)CCOCc2cccc3c(=O)c(C)c(-c4ccccc4)oc23)C(C)C)cc1OC.Cl.O` (centres unmarked) [Example 18, 8-{2-[4-Cyano-4-(3,4-dimethoxyphenyl)-5,N-dimethylhexylamino]ethoxymethyl}-3-methyl-4-oxo-2-phenyl-4H-1-benzopyran hydrochloride hydrate], the half-maximal inhibitory concentration (IC50) in series [1] (setting [5]) amounted to 300 nM; in series [1] (setting [6]), 400 nM. Also, the 50% lethal dose (LD50) at 168 h in series [2] (setting [7]) turned out to be 334 mg/kg; in series [2] (setting [8]), 974 mg/kg.
As for `COc1ccc(C(C#N)(CCCN(C)CCSCc2cccc3c(=O)c(C)c(-c4ccccc4)oc23)C(C)C)cc1OC.Cl` (centres unmarked) [Example 19, 8-{2-[4-Cyano-4-(3,4-dimethoxyphenyl)-5,N-dimethylhexylamino]ethylthiomethyl}-3-methyl-4-oxo-2-phenyl-4H-1-benzopyran hydrochloride], the concentration for half-maximal inhibition (IC50) was determined as 500 nM in series [1] (setting [5]) and 1300 nM in series [1] (setting [6]). Further, the LD50 at 168 h in series [2] (setting [7]) was over 1000 mg/kg; in series [2] (setting [8]), over 3000 mg/kg.
The like results for `COc1ccc(C(C#N)(CCCN(C)CCS(=O)(=O)Cc2cccc3c(=O)c(C)c(-c4ccccc4)oc23)C(C)C)cc1OC` (centres unmarked) [Example 20, 8-{2-[4-Cyano-4-(3,4-dimethoxyphenyl)-5,N-dimethylhexylamino]ethylsulphonylmethyl}-3-methyl-4-oxo-2-phenyl-4H-1-benzopyran hydrochloride hemihydrate] were, in that order, 500 nM, 500 nM, over 1000 mg/kg and over 3000 mg/kg.
